From patent EP2970215B1, “PYRROLIDINE DERIVATIVES, PHARMACEUTICAL COMPOSITIONS CONTAINING THEM, AND THEIR USE IN THERAPY” (AbbVie Deutschland GmbH & Co. KG, priority 2013, dated 2014) come the findings set out here.

Where only a bound is given, the exact number is not on record here.

In the first experiment the target is T1, human GlyT1c transporter (Homo sapiens, UniProt P48067).
T1 construct: expressed in transfected cells; host or cells: CHO cells (recombinant; line hGlyT1c_5_CHO is named for the uptake assay)
T1 sequence (P48067 1-706): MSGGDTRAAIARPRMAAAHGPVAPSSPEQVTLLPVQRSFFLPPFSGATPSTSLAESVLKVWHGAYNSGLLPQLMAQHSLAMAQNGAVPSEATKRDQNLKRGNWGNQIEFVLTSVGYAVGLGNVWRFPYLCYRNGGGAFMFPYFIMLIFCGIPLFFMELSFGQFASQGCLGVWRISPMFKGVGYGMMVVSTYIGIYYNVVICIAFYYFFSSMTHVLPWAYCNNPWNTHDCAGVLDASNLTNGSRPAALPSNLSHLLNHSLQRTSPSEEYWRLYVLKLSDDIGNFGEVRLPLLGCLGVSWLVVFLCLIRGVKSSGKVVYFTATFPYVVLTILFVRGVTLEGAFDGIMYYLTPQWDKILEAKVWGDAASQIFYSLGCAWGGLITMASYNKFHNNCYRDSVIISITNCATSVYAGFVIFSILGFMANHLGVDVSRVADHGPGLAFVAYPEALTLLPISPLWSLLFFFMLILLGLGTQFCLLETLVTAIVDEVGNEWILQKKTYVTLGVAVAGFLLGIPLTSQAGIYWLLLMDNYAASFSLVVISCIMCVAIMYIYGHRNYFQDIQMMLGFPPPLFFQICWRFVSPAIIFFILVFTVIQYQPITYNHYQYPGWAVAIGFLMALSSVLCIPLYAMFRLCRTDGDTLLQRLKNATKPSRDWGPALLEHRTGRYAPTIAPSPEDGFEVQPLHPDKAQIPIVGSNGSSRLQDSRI
Put plainly: Radioligand binding assay using recombinant CHO cell membranes expressing human GlyT1. The conditions noted are these: radioligand binding to human GlyT1c transporter-expressing membranes. The text has this: 2. Radioligand binding assays using recombinant CHO cell membranes expressing human GlyT1: […]
In the case of `Cn1cnc(S(=O)(=O)N2C[C@@H](NCc3ccc(C(F)(F)F)cc3Cl)[C@H](c3ccccn3)C2)c1` (relative stereo) [Example 320, trans-N-[2-chloro-4-(trifluoromethyl)benzyl]-1-[(1-methyl-1H-imidazol-4-yl)sulfonyl]-4-(pyridin-2-yl)pyrrolidin-3-amine], the inhibition constant Ki is no more than 0.01 µM.

`CCCCNC[C@@H]1CN(S(=O)(=O)c2cn(C)cn2)C[C@H]1c1ccc(F)cc1` (relative stereo) [Example 595, N-({trans-4-(4-fluorophenyl)-1-[(1-methyl-1H-imidazol-4-yl)sulfonyl]pyrrolidin-3-yl}methyl)butan-1-amine]: the Ki was no more than 10 µM.

In the case of `Cn1cnc(S(=O)(=O)N2C[C@@H](NCc3ccc(Cl)cc3Cl)[C@H](c3ccc(F)cc3)C2)c1` (relative stereo) [Example 279, trans-N-(2,4-dichlorobenzyl)-4-(4-fluorophenyl)-1-[(1-methyl-1H-imidazol-4-yl)sulfonyl]pyrrolidin-3-amine], the Ki is no more than 10 µM.

In the case of `CC(C)(C)OC(=O)N[C@@H]1CN(S(=O)(=O)c2ccccc2C#N)C[C@H]1c1ccc(F)cc1` (relative stereo) [Example 524, tert-butyl [trans-1-[(2-cyanophenyl)sulfonyl]-4-(4-fluorophenyl)pyrrolidin-3-yl]carbamate], the Ki is no more than 10 µM.

As for `O=C(N[C@@H]1CN(S(=O)(=O)c2cn[nH]c2)C[C@H]1c1ccccc1)c1cccc(C(F)(F)F)c1Cl` (relative stereo) [Example 46, 2-chloro-N-[trans-4-phenyl-1-(1H-pyrazol-4-ylsulfonyl)pyrrolidin-3-yl]-3-(trifluoromethyl)benzamide], the Ki is no less than 10 µM.

As to `Cn1cnc(S(=O)(=O)N2C[C@@H](NCc3ccc(C(F)(F)F)cc3Cl)[C@H](c3ccc(F)cc3)C2)c1` [Example 321, (3S,4R)-N-[2-chloro-4-(trifluoromethyl)benzyl]-4-(4-fluorophenyl)-1-[(1-methyl-1H-imidazol-4-yl)sulfonyl]pyrrolidin-3-amine], the Ki was no more than 1 µM.

For the molecule `Cn1cnc(S(=O)(=O)N2C[C@H](NCc3sc4ccccc4c3Cl)[C@@H](c3ccccc3)C2)c1` [Example 440, (3R,4S)-N-[(3-chloro-1-benzothiophen-2-yl)methyl]-1-[(1-methyl-1H-imidazol-4-yl)sulfonyl]-4-phenylpyrrolidin-3-amine], the Ki was no more than 0.1 µM.

With `NC(=O)c1ccccc1S(=O)(=O)N1C[C@@H](Nc2cc(C(F)(F)F)ccn2)[C@H](c2ccccc2)C1` (relative stereo) [Example 526, 2-{[trans-3-phenyl-4-{[4-(trifluoromethyl)pyridin-2-yl]amino}pyrrolidin-1-yl]sulfonyl}benzamide], the Ki is no more than 10 µM.

As to `Cn1cnc(S(=O)(=O)N2C[C@@H](Nc3cc(C(F)(F)F)ccc3F)[C@H](c3ccc(F)cc3)C2)c1` (relative stereo) [Example 169, trans-4-(4-fluorophenyl)-N-[2-fluoro-5-(trifluoromethyl)phenyl]-1-[(1-methyl-1H-imidazol-4-yl)sulfonyl]pyrrolidin-3-amine], the Ki is no more than 10 µM.

As to `Cn1cnc(S(=O)(=O)N2C[C@@H](Nc3cc(C(F)(F)F)ncn3)[C@H](C3CCCCC3)C2)c1` (relative stereo) [Example 531, N-{trans-4-cyclohexyl-1-[(1-methyl-1H-imidazol-4-yl)sulfonyl]pyrrolidin-3-yl}-6-(trifluoromethyl)pyrimidin-4-amine], the Ki was no more than 0.1 µM.

As for `Cn1cnc(S(=O)(=O)N2C[C@@H](Nc3ccc(C(F)(F)F)cc3)[C@H](c3ccc(F)cc3)C2)c1` (relative stereo) [Example 89, trans-4-(4-fluorophenyl)-1-[(1-methyl-1H-imidazol-4-yl)sulfonyl]-N-[4-(trifluoromethyl)phenyl]pyrrolidin-3-amine], the Ki was no more than 0.1 µM.

For `Cn1cnc(S(=O)(=O)N2C[C@@H](Nc3ccc(Cl)cc3)[C@H](c3ccc(F)cc3)C2)c1` (relative stereo) [Example 95, trans-N-(4-chlorophenyl)-4-(4-fluorophenyl)-1-[(1-methyl-1H-imidazol-4-yl)sulfonyl]pyrrolidin-3 - amine], the Ki is no more than 1 µM.

In the case of `Cn1cnc(S(=O)(=O)N2C[C@H](Nc3cccc(-c4ccccn4)c3)[C@@H](c3ccccc3)C2)c1` [Example 802, (3R,4S)-1-[(1-methyl-1H-imidazol-4-yl)sulfonyl]-4-phenyl-N-[3-(pyridin-2-yl)phenyl]pyrrolidin-3-amine], the Ki was no more than 0.1 µM.

On to `Cc1cccc(N[C@@H]2CN(S(=O)(=O)c3cn(C)cn3)C[C@H]2c2ccc(F)cc2)c1` (relative stereo) [Example 85, trans-4-(4-fluorophenyl)-1-[(1-methyl-1H-imidazol-4-yl)sulfonyl]-N-(3-methylphenyl)pyrrolidin-3-amine], for which the Ki was no more than 0.01 µM.

As to `Cc1ncsc1CN[C@H]1CN(S(=O)(=O)c2cn(C)cn2)C[C@@H]1c1ccccc1` [Example 434, (3R,4S)-1-[(1-methyl-1H-imidazol-4-yl)sulfonyl]-N-[(4-methyl-1,3-thiazol-5-yl)methyl]-4-phenylpyrrolidin-3-amine], the Ki is no more than 10 µM.

With `Cn1cnc(S(=O)(=O)N2C[C@@H](NCc3ccccc3)[C@H](c3ccc(F)cc3)C2)c1` (relative stereo) [Example 148, trans-N-benzyl-4-(4-fluorophenyl)-1-[(1-methyl-1H-imidazol-4-yl)sulfonyl]pyrrolidin-3-amine], the Ki was no more than 10 µM.

For the molecule `CC(=O)CCCC(=O)N[C@H]1CN(S(=O)(=O)c2cn(C)cn2)C[C@@H]1c1ccc(F)cc1` [Example 695, N-{(3R,4S)-4-(4-fluorophenyl)-1-[(1-methyl-1H-imidazol-4-yl)sulfonyl]pyrrolidin-3-yl}-5-oxohexanamide], the Ki is no more than 10 µM.

Take `Cn1cnc(S(=O)(=O)N2C[C@H](C(=O)NCc3ccc(C(F)(F)F)cc3Cl)[C@@H](c3ccc(F)cc3)C2)c1` [Example 663, (3R,4S)-N-[2-chloro-4-(trifluoromethyl)benzyl]-4-(4-fluorophenyl)-1-[(1-methyl-1H-imidazol-4-yl)sulfonyl]pyrrolidine-3-carboxamide]: the Ki was no more than 0.1 µM.

In the case of `CCOc1cc(N[C@H]2CN(S(=O)(=O)c3cn(C)cn3)C[C@@H]2c2ccc(F)cc2)ncn1` [Example 715, 6-ethoxy-N-{(3R,4S)-4-(4-fluorophenyl)-1-[(1-methyl-1H-imidazol-4-yl)sulfonyl]pyrrolidin-3-yl}pyrimidin-4-amine], the Ki is no more than 1 µM.

For the molecule `CCS(=O)(=O)N1C[C@@H](NC(=O)c2cccc(C(F)(F)F)c2Cl)[C@H](c2ccccc2)C1` (relative stereo) [Example 124, 2-chloro-N-[trans-1-(ethylsulfonyl)-4-phenylpyrrolidin-3-yl]-3-(trifluoromethyl)benzamide], the Ki is no more than 10 µM.

In the case of `Cn1cnc(S(=O)(=O)N2C[C@H](Nc3cccc4c3CNC4=O)[C@@H](c3ccccc3)C2)c1` [Example 421, 4-({(3R,4S)-1-[(1-methyl-1H-imidazol-4-yl)sulfonyl]-4-phenylpyrrolidin-3-yl}amino)-2,3-dihydro-1H-isoindol-1-one], the Ki was no more than 10 µM.

As to `Cn1cnc(S(=O)(=O)N2C[C@@H](Nc3cccc(Cl)c3)[C@H](c3ccccn3)C2)c1` (relative stereo) [Example 345, Trans-N-(3-chlorophenyl)-1-[(1-methyl-1H-imidazol-4-yl)sulfonyl]-4-(pyridin-2-yl)pyrrolidin-3-amine], the Ki was no more than 0.1 µM.

`Cn1cnc(S(=O)(=O)N2C[C@@H](CNc3ccc(F)c(C(F)(F)F)c3)[C@H](c3ccc(F)cc3)C2)c1` (relative stereo) [Example 313, 4-fluoro-N-({trans-4-(4-fluorophenyl)-1-[(1-methyl-1H-imidazol-4-yl)sulfonyl]pyrrolidin-3-yl}methyl)-3-(trifluoromethyl)aniline]: the Ki was no more than 1 µM.

Take `N#Cc1ccccc1S(=O)(=O)N1C[C@@H](N)[C@H](c2ccccc2)C1` (relative stereo) [Example 527, 2-(Trans-3-amino-4-phenylpyrrolidin-1-ylsulfonyl)benzonitrile]: the Ki is no more than 10 µM.

Staying with this experiment, now noted: radioligand binding, recombinant CHO cell membranes expressing human GlyT1c.
`Cn1cnc(S(=O)(=O)N2C[C@@H](Nc3cccc(OCC(F)(F)F)c3)[C@H](C3CCOC3)C2)c1` (relative stereo) [Example 834, trans-1-[(1-methyl-1H-imidazol-4-yl)sulfonyl]-4-(tetrahydrofuran-3-yl)-N-[3-(2,2,2-trifluoroethoxy)phenyl]pyrrolidin-3-amine]: the Ki is no more than 1 µM.

Take `Cc1cc(N[C@@H]2CN(S(=O)(=O)c3cn(C)cn3)C[C@H]2C2CCCCO2)ccc1F` (relative stereo) [Example 847, Trans-N-(4-fluoro-3-methylphenyl)-1-[(1-methyl-1H-imidazol-4-yl)sulfonyl]-4-(tetrahydro-2H-pyran-2-yl)pyrrolidin-3-amine]: the Ki is no more than 0.1 µM.

Usually Ki stands for a dissociation constant, usually derived from enzyme kinetics or from competition with a known ligand.
